Laboratory results as given in patent US20240010606A1, “FUMARATE DERIVATIVES AND THEIR MEDICAL USE” (Sitryx Therapeutics Limited, priority 2020, published 2024).
pEC50, pIC50: −log10 of the molar value.

Assays:
NRF2 = NRF2 activation assay (DiscoverX PathHunter NRF2 translocation kit, U2OS cells); assay type: cell-based
Method in brief: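 PathHunter U2OS cells, grown 24 h at 37 °C/5% CO2, treated 6 h with compound; NRF2 nuclear translocation read as enzyme-fragment-complementation chemiluminescence. Activation normalised to dimethyl fumarate high and untreated low controls; EC50 from concentration-response curve.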

hepatocytes [1] = experiment: Hepatocyte stability assay, human; assay type: in vitro ADME; conditions: 10 μM compound
Method in brief: (§1)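 Cryopreserved hepatocytes (viability >70%) at 0.5×10^6 cells/mL in Leibovitz buffer, preincubated 10 min at 37 °C, then compound at 10 μM (0.1% DMSO) in duplicate; buffer-only incubations as control. Samples at 0-60 min quenched in acetonitrile, analysed by LC-MS/MS; half-life and CLint (μL min^−1 10^−6 cells) from ln % remaining versus time.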

[2] = Hepatocyte stability assay, human; assay type: in vitro ADME; conditions: cryopreserved hepatocytes, 10 μM compound
Method in brief: as §1

IL-6 = experiment: THP-1 AlphaLISA IL-6 cytokine assay; assay type: cell-based; conditions: Homo sapiens
Method in brief: (§2)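 THP-1 cells differentiated 72 h with PMA, pre-incubated 30 min with compounds, stimulated 24 h with LPS, then 1 h with nigericin, all at 37 °C. Supernatant cytokine measured by AlphaLISA; % inhibition normalised to ±LPS controls and IC50 taken from concentration-response curves.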

IL-1β = experiment: THP-1 AlphaLISA IL-1β cytokine assay; assay type: cell-based; conditions: Homo sapiens, differentiated THP-1 cells
Method in brief: as §2

hepatocytes [3] = experiment: Hepatocyte stability assay, mouse; assay type: in vitro ADME; conditions: 10 μM compound
Method in brief: as §1

[4] = Hepatocyte stability assay, mouse; assay type: in vitro ADME; conditions: mouse, cryopreserved hepatocytes, 10 μM compound
Method in brief: as §1

[5] = +GSH, normalised to dimethyl fumarate high control, Table 3
[6] = −GSH, normalised to dimethyl fumarate high control, Table 3
[7] = THP-1, differentiated THP-1 cells, LPS then Nigericin, Table 1
[8] = +GSH, Table 4, compounds of formula (II)
[9] = −GSH, Table 4, compounds of formula (II)
[10] = THP-1, differentiated THP-1 cells, Table 2, compounds of formula (II)
[11] = Table 2, compounds of formula (II)

SMILES	pEC50 (NRF2; +GSH, Table 3)	NRF2 activation Emax (NRF2; [5])	pEC50 (NRF2; −GSH, Table 3)	NRF2 activation Emax (NRF2; [6])	CIint (hepatocytes [1]; Table 5)	half-life at 10 μM ([2]; Table 5, read-out: T½) [min]	pIC50 (IL-6; [7])	pIC50 (IL-1β; LPS then Nigericin, Table 1)	CIint (hepatocytes [3]; Table 5)	half-life at 10 μM ([4]; Table 5, read-out: T½) [min]	pEC50 (NRF2; [8])	NRF2 activation Emax (NRF2; [8])	pEC50 (NRF2; [9])	NRF2 activation Emax (NRF2; [9])	CIint (hepatocytes [1]; Table 6)	half-life at 10 μM ([2]; Table 6, read-out: T½) [min]	pIC50 (IL-6; [10])	pIC50 (IL-1β; [11])	CIint (hepatocytes [3]; Table 6)	half-life at 10 μM ([4]; Table 6, read-out: T½) [min]	other results
O=C(O)CCOC(=O)/C=C/C(=O)OC1CCCCCCC1 [Example 3, (E)-3-((4-(Cyclooctyloxy)-4-oxobut-2-enoyl)oxy)propanoic acid]	4.00 to 4.70	++ (++ means 100-149)	> 5.70	++++ (++++ means 200-250%)	+++ (+++ means 50-149)	5 to 29	> 5.60	> 5.60	+ (+ means >277)	< 5											
O=C(O)/C=C/C(=O)OC1(c2cc(Cl)cc(Cl)c2)CCC1 [Intermediate 14, (E)-4-(1-(3,5-dichlorophenyl)cyclobutoxy)-4-oxobut-2-enoic acid]											> 4.64	++++ (++++ means >150%)	> 4.64	++++ (++++ means >150%)	++++ (++++ means 5-15)	> 100	> 5.22	4.52 to 5.22	++ (++ means >30-110)	5 to 29	
O=C(O)COC(=O)/C=C/C(=O)OC1CCCCCCC1 [Example 1, (E)-2-((4-(cyclooctyloxy)-4-oxobut-2-enoyl)oxy)acetic acid]	4.70 to 5.22	++ (++ means 100-149)	> 5.70	++++ (++++ means 200-250%)	++++ (++++ means <50)	30 to 100	> 5.60	5.21 to 5.60	+ (+ means >277)	< 5											
O=C(O)/C=C/C(=O)OC1(c2ccc(Br)cc2)CCC1 [Intermediate 12, (E)-4-(1-(4-bromophenyl)cyclobutoxy)-4-oxobut-2-enoic acid]											> 4.64	++ (++ means >87-114%)	> 4.64	++ (++ means >87-114%)	+++ (+++ means >15-30)	30 to 100	4.52 to 5.22	4.52 to 5.22	+++ (+++ means >15-30)	30 to 100	
O=C(O)/C=C/C(=O)OC1(c2cc(Cl)c(F)c(Cl)c2)CCC1 [Intermediate 25, (E)-4-(1-(3,5-dichloro-4-fluorophenyl)cyclobutoxy)-4-oxobut-2-enoic acid]											> 4.64	++ (++ means >87-114%)	> 4.64	++++ (++++ means >150%)	+++ (+++ means >15-30)	> 100	> 5.22	4.52 to 5.22	++ (++ means >30-110)	30 to 100	
O=C(O)CCOC(=O)/C=C/C(=O)OC1CCCCC1 [Example 4, (E)-3-((4-(cyclohexyloxy)-4-oxobut-2-enoyl)oxy)propanoic acid]	4.70 to 5.22	+ (+ means >17.1-99)	5.22 to 5.68	+++ (+++ means 150-199%)	+++ (+++ means 50-149)	5 to 29	> 5.60	5.21 to 5.60	+ (+ means >277)	< 5											pIC50 (IL-6; THP-1, from repeated experiments, Table 1): 5.21 to 5.60
O=C(O)COC(=O)/C=C/C(=O)OC1CCCCC1 [Example 2, (E)-2-((4-(cyclohexyloxy)-4-oxobut-2-enoyl)oxy)acetic acid]	4.00 to 4.70	+ (+ means >17.1-99)	5.22 to 5.68	++++ (++++ means 200-250%)	++++ (++++ means <50)	30 to 100	5.04 to 5.21	4.84 to 5.03	++ (++ means 200-277)	5 to 10											
O=C(O)/C=C/C(=O)OC1(c2cccc(C(F)(F)F)c2)CCC1 [Intermediate 10, (E)-4-oxo-4-(1-(3-(trifluoromethyl)phenyl)cyclobutoxy)but-2-enoic acid]											> 4.64	+++ (+++ means >114-150%)	> 4.64	+++ (+++ means >114-150%)	++ (++ means >30-110)	5 to 29	4.52 to 5.22	4.52 to 5.22	++ (++ means >30-110)	30 to 100	
C[C@@H](OC(=O)/C=C/C(=O)O)c1ccc(C(F)(F)F)cc1 [Intermediate 20, (R,E)-4-oxo-4-(1-(4-(trifluoromethyl)phenyl)ethoxy)but-2-enoic acid]											4.32 to 4.64	+ (+ means >50-<87%)	> 4.64	+++ (+++ means >114-150%)	++++ (++++ means 5-15)	> 100	4.52 to 5.22	4.52 to 5.22	+++ (+++ means >15-30)	30 to 100	
O=C(O)/C=C/C(=O)OC1(c2ccc(OC(F)(F)F)cc2)CCC1 [Intermediate 30, (E)-4-oxo-4-(1-(4-(trifluoromethoxy)phenyl)cyclobutoxy)but-2-enoic acid]											4.32 to 4.64	++ (++ means >87-114%)	> 4.64	+++ (+++ means >114-150%)	++++ (++++ means 5-15)	> 100	4.52 to 5.22	> 5.22	+++ (+++ means >15-30)	30 to 100	
CC(C)(OC(=O)/C=C/C(=O)O)c1ccc(C(F)(F)F)cc1 [Intermediate 21, (E)-4-oxo-4-((2-(4-(trifluoromethyl)phenyl)propan-2-yl)oxy)but-2-enoic acid]											> 4.64	++ (++ means >87-114%)	> 4.64	+++ (+++ means >114-150%)	++++ (++++ means 5-15)	> 100	< 4.00	4.52 to 5.22	++++ (++++ means 5-15)	> 100	pEC50 (NRF2; +GSH, from repeated experiments, Table 4): 4.32 to 4.64
